Measured values from PubChem BioAssay AID248 (DTP/NCI, 2004).
“And” between values parts separate entries of the source, which are not always exact repeats. Equal entries are not always repeated. Inconclusive results and toxic doses are left out. Cut-off read from the data, not from the text of the source: active = T/C of 150% or more; inactive = T/C below 125%.

Test system: L1210 leukemia ip in BDF1 mice, survival T/C
Assay: NCI In Vivo Anticancer Drug Screen. Data for tumor model L1210 Leukemia (intraperitoneal) in B6D2F1 (BDF1) mice
Settings: endpoint: mean survival time, higher = longer survival
Procedure, shortened: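 Ratio derived from survival: compound-dosed mice over vehicle-dosed mice, all bearing a transplantable tumor.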

[1] = dose: 100.0 mg/kg/injection, schedule: Q01DX001 (ip), vehicle: Klucel (hydroxypropylcellulose) (HPC)
[2] = dose: 100.0 mg/kg/injection, schedule: Q01DX009 (ip), vehicle: Klucel (hydroxypropylcellulose) (HPC)
[3] = dose: 100.0 mg/kg/injection, schedule: Q04DX002 (ip), vehicle: Klucel (hydroxypropylcellulose) (HPC)
[4] = dose: 100.0 mg/kg/injection, schedule: Q04DX003 (ip), vehicle: Klucel (hydroxypropylcellulose) (HPC)
[5] = dose: 200.0 mg/kg/injection, schedule: Q01DX001 (ip), vehicle: Klucel (hydroxypropylcellulose) (HPC)
[6] = dose: 200.0 mg/kg/injection, schedule: Q01DX009 (ip), vehicle: Klucel (hydroxypropylcellulose) (HPC)
[7] = dose: 200.0 mg/kg/injection, schedule: Q04DX002 (ip), vehicle: Klucel (hydroxypropylcellulose) (HPC)
[8] = dose: 200.0 mg/kg/injection, schedule: Q04DX003 (ip), vehicle: Klucel (hydroxypropylcellulose) (HPC)
[9] = dose: 400.0 mg/kg/injection, schedule: Q01DX001 (ip), vehicle: Klucel (hydroxypropylcellulose) (HPC)
[10] = dose: 400.0 mg/kg/injection, schedule: Q04DX002 (ip), vehicle: Klucel (hydroxypropylcellulose) (HPC)
[11] = dose: 400.0 mg/kg/injection, schedule: Q04DX003 (ip), vehicle: Klucel (hydroxypropylcellulose) (HPC)
[12] = dose: 400.0 mg/kg/injection, schedule: Q01DX009 (ip), vehicle: Klucel (hydroxypropylcellulose) (HPC)
[13] = dose: 100.0 mg/kg/injection, schedule: Q01DX001 (ip), vehicle: saline
[14] = dose: 200.0 mg/kg/injection, schedule: Q01DX001 (ip), vehicle: saline
[15] = dose: 400.0 mg/kg/injection, schedule: Q01DX001 (ip), vehicle: saline
[16] = dose: 100.0 mg/kg/injection, schedule: Q01DX001 (ip), vehicle: carboxymethylcellulose (CMC)
[17] = dose: 200.0 mg/kg/injection, schedule: Q01DX001 (ip), vehicle: carboxymethylcellulose (CMC)
[18] = dose: 400.0 mg/kg/injection, schedule: Q01DX001 (ip), vehicle: carboxymethylcellulose (CMC)

Measured: T/C

CC1=CN(C)C(=O)CC1
inactive: dose: 100.0 mg/kg/injection, schedule: Q01DX001 (ip), vehicle: acetone 96 % of control | dose: 200.0 mg/kg/injection, schedule: Q01DX001 (ip), vehicle: acetone 96 % of control | dose: 400.0 mg/kg/injection, schedule: Q01DX001 (ip), vehicle: acetone 104 % of control

CC(C)(C)c1cc(/C=N/NC(=O)CCCCCCCCC(=O)N/N=C/c2cc(C(C)(C)C)c(O)c(C(C)(C)C)c2)cc(C(C)(C)C)c1O
inactive: [1] 104 % of control | [2] 94 % of control | [3] 109 % of control | [4] 111 % of control | [5] 103 % of control | [6] 94 % of control and 90 % of control | [7] 100 % of control | [8] 110 % of control | [9] 93 % of control | [10] 102 % of control | [11] 108 % of control

COc1ccccc1-n1c(O)c(N=Nc2ccc(Br)cc2)c(=O)n(-c2ccc(C)cc2)c1=S
inactive: [1] 109 % of control | [5] 102 % of control | [9] 102 % of control

CCCCOc1ccc(OC(=O)Nc2cc(Cl)ccc2OC)cc1
inactive: [2] 105 % of control | [4] 96 % of control | [6] 97 % of control | [8] 97 % of control | [12] 113 % of control | [11] 97 % of control

CCN(C)O
inactive: dose: 100.0 mg/kg/injection, schedule: Q01DX009 (ip), vehicle: saline 109 % of control | dose: 100.0 mg/kg/injection, schedule: Q04DX003 (ip), vehicle: saline 110 % of control | dose: 200.0 mg/kg/injection, schedule: Q01DX009 (ip), vehicle: saline 111 % of control | dose: 200.0 mg/kg/injection, schedule: Q04DX003 (ip), vehicle: saline 105 % of control | dose: 400.0 mg/kg/injection, schedule: Q01DX009 (ip), vehicle: saline 104 % of control | dose: 400.0 mg/kg/injection, schedule: Q04DX003 (ip), vehicle: saline 114 % of control

CN(Cc1ccccc1)C(=O)/C=C/c1ccccc1
inactive: [2] 93 % of control | [4] 94 % of control | [6] 96 % of control | [8] 96 % of control | [11] 89 % of control

CCN(C(=O)c1ccc(C(=O)N(CC)c2cccc(C)c2)cc1)c1cccc(C)c1
inactive: [2] 94 % of control | [6] 89 % of control | [12] 91 % of control

CCN(CC(=O)O)CC(=O)O
inactive: [13] 93 % of control | [14] 112 % of control | [15] 96 % of control

C[N+]1([O-])C2CCC1CC(OC(=O)C(O)c1ccccc1)C2 (configuration not stated)
inactive: dose: 75.0 mg/kg/injection, schedule: Q01DX001 (ip), vehicle: saline 110 % of control | dose: 150.0 mg/kg/injection, schedule: Q01DX001 (ip), vehicle: saline 100 % of control | dose: 300.0 mg/kg/injection, schedule: Q01DX001 (ip), vehicle: saline 95 % of control

COc1c(/C=C/[N+](=O)[O-])ccc2c(C)c(C)oc12
inactive: dose: 25.0 mg/kg/injection, schedule: Q01DX009 (ip), vehicle: Klucel (hydroxypropylcellulose) (HPC) 98 % of control | dose: 50.0 mg/kg/injection, schedule: Q01DX009 (ip), vehicle: Klucel (hydroxypropylcellulose) (HPC) 95 % of control | [2] 101 % of control | [4] 98 % of control | [8] 87 % of control | [11] 92 % of control

CC(=O)C(Sc1ccccc1[N+](=O)[O-])C(C)=O.[Co]
inactive: dose: 50.0 mg/kg/injection, schedule: Q01DX001 (ip), vehicle: other 92 % of control | dose: 100.0 mg/kg/injection, schedule: Q01DX001 (ip), vehicle: other 92 % of control | dose: 200.0 mg/kg/injection, schedule: Q01DX001 (ip), vehicle: other 92 % of control | dose: 400.0 mg/kg/injection, schedule: Q01DX001 (ip), vehicle: other 100 % of control

CCOc1ccccc1NC(=O)Nc1ccccc1C(F)(F)F
inactive: [2] 94 % of control | [6] 96 % of control | [12] 91 % of control

NC(=S)c1n[nH]nc1N
inactive: dose: 50.0 mg/kg/injection, schedule: Q01DX001 (ip), vehicle: saline 104 % of control | [13] 100 % of control | [14] 100 % of control

CCC(CO)Nc1nc2c(Cl)cc(Cl)cc2c2ccccc12 (configuration not stated)
inactive: [4] 100 % of control | [8] 100 % of control | [11] 90 % of control

Cc1cc(=O)c2c(C)cccc2[nH]1
inactive: dose: 6.25 mg/kg/injection, schedule: Q01DX009 (ip), vehicle: saline sonified 101 % of control | dose: 6.25 mg/kg/injection, schedule: Q04DX003 (ip), vehicle: saline with Tween-80 90 % of control | dose: 12.5 mg/kg/injection, schedule: Q01DX009 (ip), vehicle: saline sonified 99 % of control | dose: 25.0 mg/kg/injection, schedule: Q01DX009 (ip), vehicle: saline sonified 99 % of control | dose: 25.0 mg/kg/injection, schedule: Q04DX003 (ip), vehicle: saline with Tween-80 92 % of control

O=S1(=O)OC(c2ccccc2)(c2ccccc2)c2ccccc21
inactive: [16] 100 % of control | [17] 100 % of control | [18] 100 % of control

N#Cc1ccc(/C=N/N2CCN(/N=C/c3ccc(C#N)cc3)CC2)cc1
inactive: [16] 96 % of control | [17] 91 % of control | [18] 94 % of control

CCCN(CCC)CCCCCCO
inactive: dose: 100.0 mg/kg/injection, schedule: Q04DX003 (ip), vehicle: saline with Tween-80 94 % of control | dose: 200.0 mg/kg/injection, schedule: Q04DX003 (ip), vehicle: saline with Tween-80 96 % of control

Cc1ccccc1NC(=O)CC#N
inactive: dose: 100.0 mg/kg/injection, schedule: Q04DX002 (ip), vehicle: saline with Tween-80 90 % of control | dose: 200.0 mg/kg/injection, schedule: Q04DX002 (ip), vehicle: saline with Tween-80 101 % of control | dose: 400.0 mg/kg/injection, schedule: Q04DX002 (ip), vehicle: saline with Tween-80 94 % of control

N=c1ccn(C(=O)C2=Cc3cc(Cl)ccc3OC2)cc1
inactive: dose: 100.0 mg/kg/injection, schedule: Q01DX009 (ip), vehicle: saline with Tween-80 92 % of control | dose: 200.0 mg/kg/injection, schedule: Q01DX009 (ip), vehicle: saline with Tween-80 102 % of control

Cc1cc2cc3c(=O)[nH]c(=O)[nH]c3nc2cc1C
inactive: [13] 93 % of control | [14] 102 % of control | [15] 91 % of control

Cc1cc(=O)n(-c2ccc(N)cc2)n1C
inactive: [4] 100 % of control | [8] 100 % of control | [11] 101 % of control

O=C1c2cccc3cc([N+](=O)[O-])cc(c23)C(=O)N1CCc1ccccn1
inactive: [3] 94 % of control | [7] 102 % of control | [10] 108 % of control

Nc1ncnc(N)c1NC(=O)c1cccc(-c2ccccc2)c1
inactive: dose: 100.0 mg/kg/injection, schedule: Q01DX001 (ip), vehicle: saline with Tween-80 97 % of control | dose: 200.0 mg/kg/injection, schedule: Q01DX001 (ip), vehicle: saline with Tween-80 101 % of control | dose: 400.0 mg/kg/injection, schedule: Q01DX001 (ip), vehicle: saline with Tween-80 90 % of control
